This is an account of results in ChEMBL document CHEMBL4339210, “Synthesis and evaluation of histamine H3 receptor ligand based on lactam scaffold as agents for treating neuropathic pain” (Bioorg Med Chem Lett, 2019).

The target in one data set is Histamine H1 receptor (Cavia porcellus, UniProt P31389). As to the kind of experiment: Displacement of [3H]-mepyramine from histamine H1 receptor in guinea pig cerebellum homogenates incubated for 60 mins by Cheng and Prusoff equation analysis by scintillation counting analysis. It is filed as tissue-based. On the technique in general: Loss of bound radioactivity is the signal in a displacement assay; it reports binding, not function.
Histamine H1 receptor, sequence (P31389 whole entry): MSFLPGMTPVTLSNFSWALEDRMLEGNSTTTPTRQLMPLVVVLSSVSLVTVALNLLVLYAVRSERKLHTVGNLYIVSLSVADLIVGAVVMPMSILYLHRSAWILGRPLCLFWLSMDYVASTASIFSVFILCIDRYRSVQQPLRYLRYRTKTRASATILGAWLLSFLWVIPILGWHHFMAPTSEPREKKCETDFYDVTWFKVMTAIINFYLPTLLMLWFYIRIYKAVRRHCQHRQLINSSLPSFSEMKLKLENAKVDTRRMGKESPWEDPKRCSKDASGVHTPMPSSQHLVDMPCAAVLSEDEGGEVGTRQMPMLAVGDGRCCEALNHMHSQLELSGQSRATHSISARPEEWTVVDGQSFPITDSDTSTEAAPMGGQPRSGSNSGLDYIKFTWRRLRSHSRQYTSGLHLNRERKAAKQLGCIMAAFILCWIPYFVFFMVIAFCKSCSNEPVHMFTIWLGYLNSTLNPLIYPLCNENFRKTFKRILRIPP

In a further data set the target is Histamine H3 receptor (Rattus norvegicus, UniProt Q9QYN8). In words: Displacement of [3H]-N-alpha-methylhistamine from histamine H3 receptor in rat cerebral cortex homogenates incubated for 60 mins by Cheng and Prusoff equation analysis by scintillation counting analysis.
Histamine H3 receptor, sequence (Q9QYN8 whole entry): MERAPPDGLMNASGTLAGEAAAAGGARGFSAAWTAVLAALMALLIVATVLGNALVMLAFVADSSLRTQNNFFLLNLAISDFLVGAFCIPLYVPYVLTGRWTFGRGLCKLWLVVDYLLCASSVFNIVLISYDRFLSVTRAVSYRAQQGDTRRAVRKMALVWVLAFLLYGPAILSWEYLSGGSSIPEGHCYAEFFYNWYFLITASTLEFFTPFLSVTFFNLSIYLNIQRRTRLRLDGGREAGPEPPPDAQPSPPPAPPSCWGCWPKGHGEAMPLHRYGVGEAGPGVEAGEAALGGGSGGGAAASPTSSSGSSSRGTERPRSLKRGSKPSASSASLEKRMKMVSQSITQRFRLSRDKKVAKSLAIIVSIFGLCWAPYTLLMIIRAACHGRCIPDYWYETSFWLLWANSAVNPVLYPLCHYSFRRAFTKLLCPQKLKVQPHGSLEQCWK
Data set [1] has as its system Rattus norvegicus. In words: Anti-nociceptive activity in Sprague-Dawley rat assessed as reduction in total time spent licking injected paw during early phase (0 to 5 mins) at 40 mg/kg, po dosed 1 hr before formalin injection. It is filed as functional, organism-based.
Data set [2] has as its system Rattus norvegicus. As to the kind of experiment: Anti-nociceptive activity in Sprague-Dawley rat assessed as reduction in total time spent licking injected paw during delayed phase (15 to 45 mins) at 40 mg/kg, po dosed 1 hr before formalin injection. Format: functional, organism-based.
In data set [3] the test system is Rattus norvegicus. As to the kind of experiment: Anti-nociceptive activity in Sprague-Dawley rat assessed as reduction in total time spent licking injected paw during delayed phase (15 to 45 mins) at 1 mg/kg, po dosed 1 hr before formalin injection. Format: functional, organism-based.
Data set [4] concerns Rattus norvegicus. In words: Anti-nociceptive activity in Sprague-Dawley rat assessed as reduction in total time spent licking injected paw during early phase (0 to 5 mins) at 1 mg/kg, po dosed 1 hr before formalin injection. Format: functional, organism-based.
Data set [5] deals with Rattus norvegicus. As to the kind of experiment: Anti-nociceptive activity in Sprague-Dawley rat assessed as reduction in total time spent licking injected paw during delayed phase (15 to 45 mins) at 1 to 10 mg/kg, po dosed 1 hr before formalin injection. Format: functional.
Data set [6] deals with Rattus norvegicus. As to the kind of experiment: Anti-nociceptive activity in Sprague-Dawley rat assessed as reduction in total time spent licking injected paw during early phase (0 to 5 mins) at 1 to 10 mg/kg, po dosed 1 hr before formalin injection. It is filed as functional.
Data set [7] in a line: Acute toxicity in KM mouse assessed as effect on survival at 50 to 1000 mg/kg, po after 24 hrs. It is filed as organism-based. The following applies: in vivo.

pKi: −log10 of the molar value. Active and inactive are the calls of the source. The rule behind the calls is not given here.

On to `CCN1CCc2ccc(OCCCN3CCOCC3)cc2C1=O`, for which, at Histamine H1 receptor, the negative-log Ki (pKi) is 6.60. As for `CC1CCCN1CCCOc1ccc2c(c1)C(=O)N(C)CC2` (stereo not drawn), the pKi on Histamine H3 receptor was 7.17; on Histamine H1 receptor, 7.59. As to `CN1CCc2ccc(OCCCN3CCCC3)cc2C1=O`, the pKi on Histamine H3 receptor was 6.77; on Histamine H1 receptor, 7.41. Regarding `CC1CCCCN1CCCOc1ccc2c(c1)C(=O)N(C)CC2` (stereo not drawn), the pKi on Histamine H1 receptor was 6.78. Consider `CN1CCc2ccc(OCCCCN3CCOCC3)cc2C1=O`, for which the pKi on Histamine H1 receptor is 6.07. The compound `CCN(CC)CCCOc1ccc2c(c1)C(=O)N(C)CC2` gave a pKi on Histamine H1 receptor of 6.27. In the case of `CN1CCc2ccc(OCC(O)CN3CCOCC3)cc2C1=O` (stereo not drawn), the pKi at Histamine H1 receptor is under 5.70. As to `CC(C)C[C@H](CN)CC(=O)O`, the outcome in the data set on Rattus norvegicus [1] and in the data set on Rattus norvegicus [2] was Active. Consider `CC1CCN(CCCOc2ccc3c(c2)C(=O)N(C)CC3)CC1`, for which the pKi on Histamine H3 receptor was 6.55; on Histamine H1 receptor, 7.49. As to `CN1CCN(CCCOc2ccc3c(c2)C(=O)N(C)CC3)CC1`, on Histamine H1 receptor, the pKi was 6.15. On Histamine H1 receptor, `CN1CCc2ccc(OCCN3CCOCC3)cc2C1=O` gave a pKi of 5.92. As to `NC(=O)c1ccc(OCCCN2C[C@H]3CCC[C@H]3C2)cc1`, the result in the data set on Rattus norvegicus [3] and in the data set on Rattus norvegicus [4] was Active. Further, the pKi on Histamine H3 receptor was 6.37; at Histamine H1 receptor, 8.44. Take `CN1CCc2ccc(OCCCN3CCC(O)CC3)cc2C1=O`: the figures for the pKi at Histamine H3 receptor and at Histamine H1 receptor were 6.04 and 7.46, respectively.

Regarding `CN1CCc2ccc(OCCCN3CCOCC3)cc2C1=O`, the Activity result with Rattus norvegicus [5] and in the data set with Rattus norvegicus [6] was “Dose-dependent effect” each time. Also, the ED50 in the data set on Rattus norvegicus [5] worked out at 2.4 mg/kg; in the data set with Rattus norvegicus [6], 1.3 mg/kg. Also, the pKi at Histamine H3 receptor was 5.99; at Histamine H1 receptor, 8.19. The LD50 at 24 h in data set [7] is over 1000 mg/kg. `CN1CCc2ccc(OCCCN3CCC(=O)CC3)cc2C1=O` showed a pKi at Histamine H1 receptor of 6.75. At Histamine H1 receptor, `CN1CCc2ccc(OCCCN3CCC(O)C3)cc2C1=O` (stereo not drawn) gave a pKi of 6.95. As to `CCN1CCN(CCCOc2ccc3c(c2)C(=O)N(C)CC3)CC1`, the pKi at Histamine H1 receptor was 5.96.

`CN1CCc2ccc(OCCCN3CCCCC3)cc2C1=O`: the figures for the pKi on Histamine H3 receptor and at Histamine H1 receptor were 6.72 and 7.64, respectively.

Broadly, the pKi is −log10 of the Ki, conventionally taken in molar units. One may read the ED50 as the dose at which the effect has come halfway, by size or by number of responders. One may read the LD50 as the dose expected to kill half of the subjects tested.
